Test results: article PMC11494886, “Discovery and design of molecular glue enhancers of CDK12–DDB1 interactions for targeted degradation of cyclin K” (RSC Chemical Biology, 2024)
Where two headings read alike, the source gives them in different places.

Assays:
[1] = biological target: T1, CDK12/cyclin K + DDB1 (Homo sapiens, UniProt Q16531+Q9NYV4, DEL396-705); test: Microscale thermophoresis, ternary complex formation; type: binding; conditions: MST
T1 construct: The kinase domain of human CDK12 (Uniprot: Q9NYV4; a.a; 715–1050); GST (N, cleaved yes); made in house; host or cells: Spodoptera frugiperda SF9 insect cells (Bac-to-Bac); CDK12/cyclin K co-infected with S. cerevisiae CAK1
Method: Finally, the capacity of small molecules to induce a ternary complex between CDK12/cyclin K and DDB1 in vitro was assessed by microscale thermophoresis (MST). Labeled DDB1ΔBPB was combined with purified CDK12/cyclin K, and fluorescence intensity was monitored with increasing compound concentrations.
Cell pellets were harvested 48 hours post infection via centrifugation and lysed in buffer A (50 mM Tris–HCl (pH 8.0), 200 mM NaCl, 10 mM imidazole, 0.5 mM tris(2-carboxyethyl) phosphine (TCEP)) supplemented with EDTA-free Pierce™ protease inhibitor tablet (Thermo Fisher Scientific). […] The concentrated protein at 2 mg mL^−1 was flash-frozen in liquid nitrogen and stored at −80 °C.
Full-length S. cerevisiae CAK1 (Uniprot: P43568) with an N-terminal His6 tag was subcloned into pFastBac 1 vector. […] The eluted CDK12/cyclin K complex was concentrated to 2 mg mL^−1, flash-frozen in liquid nitrogen and stored at −80 °C.
A protocol to assess ternary binding of molecular glues with CDK12/cycK and DDB1 by MST was established using published procedures for PROTAC interaction with bromodomains and E3 ubiquitin ligases.[38] His8-DDB1-ΔBPB was labeled with the MO-L018 Monolith™ His-tag Labeling Kit RED-tris-NTA 2nd Generation (NanoTemper Technologies) following the instruction manual. 100 nM dye was mixed with 200 nM DDB1 in 50 mM HEPES pH 7.5, 150 mM NaCl, 5% glycerol, 0.05% Tween, and incubated at room temperature for 30 min. […] MST traces were recorded using standard parameters: 5 s MST power off, 30 s MST power on and 5 s MST power off. Measurements were taken at −1 to 0 s (cold region) and 9–10 s (hot region). Data were analyzed using a fitting function derived from the law of mass action:1 [drawing 6] where f(c) is the fluorescence signal (Fnorm) at a given ligand concentration (c), B is Fnorm of fully liganded DDB1 at high ligand concentrations, U is Fnorm of DDB1 alone at low ligand concentrations, Kd is the dissociation constant or binding affinity, cT is the final concentration of DDB1 in the assay (Fig. 3G). For normalization, the data were first transformed using eqn (2) where y is the fraction bound, followed by fitting to eqn (3) (Fig. 5B–E).2 [drawing 7] 3 [drawing 8]

[2] = tested on: cyclin K; test: Immunofluorescence of nuclear cyclin K in MDA-MB-231 cells; type: cell-based, human
Method: Cells were fixed with 4% PFA in PBS at room temperature, permeabilized with 0.1% Triton X-100 in PBS, and blocked with 3% BSA in PBS at room temperature. Cells were incubated with primary antibodies overnight at 4 °C, followed by incubation with Alexa-Fluor conjugated secondary antibodies for 1 hour at room temperature. Cell nuclei were stained using DAPI. Images were acquired on a confocal microscope (Leica). ImageJ and QuPath were used for image analysis.
Figure S8. Immunofluorescence staining for cyclin K degradation. MDA-MB-231 cells were
treated for 2 h with either DMSO or the indicated compounds (0.5 µM) . Cells were fixed and
Nuclei were stained with DAPI (blue). […]

[3] = tested on: MDA-MB-231 cells; test: CellTiter-Glo viability assay, WT MDA-MB-231; type: cell-based; conditions: Homo sapiens; wild type MDA-MB-231; read-out: EC50 (WT) cell viability
Text: MDA-MB-231 (human triple-negative breast cancer cells) and HEK293T (human embryonic kidney cells) were purchased from the American type culture collection (ATCC) and maintained in Dulbecco's modified Eagle's medium (DMEM) (Gibco) supplemented with 10% (v/v) heat-inactivated fetal bovine serum (FBS) (Gibco) and penicillin/streptomycin (100 U mL^−1 each). HiBiT-CCNK KI A549 cells, purchased from Promega, were maintained in F12 medium supplemented with 10% (v/v) heat-inactivated fetal bovine serum (FBS) (Gibco) and penicillin/streptomycin (100 U mL^−1 each). DDB1-knockdown MDA-MB-231 and DDB1-knockdown HEK293T cell lines were maintained in the same media formulation as their corresponding wild-type cell lines. All cell lines were cultured at 37 °C in an incubator with CO2 levels maintained at 5%.
(§1) Cell viability was measured by Cell Titer Glo assay kit (Promega, USA). EC50 was determined from the nonlinear regression and a four-parameter algorithm on the GraphPad Prism software.

[4] = tested on: MDA-MB-231DDB1-shRNA cells; test: CellTiter-Glo viability assay, MDA-MB-231 DDB1-shRNA; type: cell-based, human; conditions: Homo sapiens; MDA-MB-231 DDB1-shRNA; read-out: EC50 (DDB1 shRNA) cell viability
Text: For stable genetic knock-down of DDB1 in cells, predesigned and validated TRC2-pLKO-puro shRNA plasmids for DDB1 (TRCN0000082855 and TRCN0000082856), and a non-targeting shRNA plasmid (SHC001) were obtained from Millipore Sigma. All plasmids were purified using the Qiagen Maxiprep kit (Qiagen). FuGENE HD 6 transfection reagent (Promega) was used for transfection of plasmids and lentiviral gene/shRNA constructs. Mission lentiviral packaging mix (Millipore Sigma) was used to package lentiviral plasmids into lentiviral particles in HEK293T cells, as per manufacturer's protocols. The resultant virus was concentrated using Vivaspin 20 centrifugal concentrators (Sartorius). MDA-MB-231 and HEK293T cells were transduced with lentivirus. Stable knocked down DDB1 (shDDB1-231 and shDDB1-HEK293T) cells were generated after selection with the antibiotic puromycin, and genetic knockdown was confirmed by western blotting.
as §1

[5] = tested on: cyclin K; test: Immunoblot of cyclin K levels in MDA-MB-231 cells; type: cell-based, human; conditions: SR-4835 500 nM, SR-4784 1-2 μM 2 hours, SR-4784-PAP 2 μM 2 hours
Method: THZ531 was used as a negative control as it is known to make a covalent bond with Cys1039 in a C-terminal extension of the kinase domain, thereby preventing this helix-loop-helix (HLH)-like fold from binding in a cleft between the DDB1 BPA and BPC domains (Fig. 1B, right panels). […] An immunofluorescence-based assay developed for visualizing loss of nuclear cyclin K also confirmed the above observations (Fig. 1H and Fig. S1, ESI ^†).
Total cell lysates were prepared using RIPA lysis buffer (Millipore Sigma) supplemented with protease and phosphatase inhibitors (Roche). Protein concentrations were estimated using the BCA protein assay kit (Pierce, Thermo Fisher Scientific). Equal amounts of proteins were separated using NuPAGE 4–12% Bis-Tris gels (Thermo Fisher Scientific). For CLICK chemistry pulldown experiments, proteins in the eluates were resolved using 3–8% Tris–acetate gels (Thermo Fisher Scientific). Proteins were transferred to nitrocellulose membranes using NuPAGE transfer buffer (Thermo Fisher Scientific). Membranes were blocked in LI-COR blocking buffer for 1 hour at room temperature and then probed with primary antibodies diluted in the same blocking buffer overnight at 4 °C. To detect the primary antibodies, membranes were incubated with IR-680 or IR-800 conjugated secondary antibodies (LI-COR) diluted in LI-COR blocking buffer at room temperature for 1 hour. Washes with 0.01% Tween-phosphate buffer were performed after primary and secondary antibody incubation steps. Signals from the membrane were recorded by scanning on a LI-COR Odyssey imager. Bands were quantified using Image Studio Lite (LI-COR Biosciences) or the ImageJ program.
To visualize the degradation of cyclin K, total cell lysates were subjected to SDS-PAGE and western blotting.

[6] = labeled DDB1 + CDK12/cyclin K, run #1, read-out: Kd ternary complex formation, replicate #1
[7] = labeled DDB1 + CDK12/cyclin K, run #2, read-out: Kd ternary complex formation, replicate #2
[8] = labeled DDB1 + CDK12/cyclin K, run #3, read-out: Kd ternary complex formation, replicate #3
[9] = labeled DDB1ΔBPB 10 nM + CDK12/cyclin K 1000 nM, mean of replicates, read-out: Kd ternary complex formation (average)

T1 sequence (Q16531 with tags, fused parts or gaps DEL396-705): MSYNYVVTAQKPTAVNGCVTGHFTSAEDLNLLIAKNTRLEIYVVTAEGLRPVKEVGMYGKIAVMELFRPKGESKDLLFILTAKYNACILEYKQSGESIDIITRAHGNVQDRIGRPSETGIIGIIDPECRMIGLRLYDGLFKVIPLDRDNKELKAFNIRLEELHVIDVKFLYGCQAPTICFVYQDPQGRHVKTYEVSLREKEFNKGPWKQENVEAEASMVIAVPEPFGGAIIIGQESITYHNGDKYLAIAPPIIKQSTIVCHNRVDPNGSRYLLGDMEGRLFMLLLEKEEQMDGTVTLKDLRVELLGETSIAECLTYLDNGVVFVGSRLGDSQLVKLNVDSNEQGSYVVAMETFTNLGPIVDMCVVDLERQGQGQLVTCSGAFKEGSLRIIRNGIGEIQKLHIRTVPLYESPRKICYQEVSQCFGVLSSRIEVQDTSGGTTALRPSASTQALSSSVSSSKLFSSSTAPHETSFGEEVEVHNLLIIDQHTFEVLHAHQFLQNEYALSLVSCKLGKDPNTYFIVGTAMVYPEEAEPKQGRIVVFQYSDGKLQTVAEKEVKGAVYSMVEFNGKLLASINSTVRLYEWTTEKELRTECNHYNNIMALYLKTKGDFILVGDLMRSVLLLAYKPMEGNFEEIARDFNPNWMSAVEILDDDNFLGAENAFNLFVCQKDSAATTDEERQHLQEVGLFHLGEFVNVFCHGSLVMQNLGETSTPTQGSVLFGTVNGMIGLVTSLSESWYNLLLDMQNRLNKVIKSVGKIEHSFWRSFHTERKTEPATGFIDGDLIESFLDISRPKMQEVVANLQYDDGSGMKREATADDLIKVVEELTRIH
T1 sequence (Q9NYV4 715-1050, stated change not applied): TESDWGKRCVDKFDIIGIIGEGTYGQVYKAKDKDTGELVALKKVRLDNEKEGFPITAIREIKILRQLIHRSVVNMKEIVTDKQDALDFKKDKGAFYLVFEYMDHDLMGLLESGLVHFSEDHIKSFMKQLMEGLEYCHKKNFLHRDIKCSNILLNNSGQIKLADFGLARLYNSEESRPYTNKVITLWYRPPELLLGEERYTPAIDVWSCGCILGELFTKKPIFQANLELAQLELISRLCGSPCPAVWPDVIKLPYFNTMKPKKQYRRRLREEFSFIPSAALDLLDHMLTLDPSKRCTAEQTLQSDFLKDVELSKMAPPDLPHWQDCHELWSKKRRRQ
T1 sequence (O75909 11-267 partner limits assumed): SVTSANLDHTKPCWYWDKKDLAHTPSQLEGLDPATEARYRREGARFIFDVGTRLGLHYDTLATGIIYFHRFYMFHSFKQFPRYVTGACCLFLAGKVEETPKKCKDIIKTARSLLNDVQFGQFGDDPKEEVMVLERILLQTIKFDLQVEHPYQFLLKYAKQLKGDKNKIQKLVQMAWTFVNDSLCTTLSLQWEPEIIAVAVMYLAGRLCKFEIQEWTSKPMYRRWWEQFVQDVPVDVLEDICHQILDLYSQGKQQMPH

Row | Compound | Kd [1, 6] [nM] | Kd [1, 7] [nM] | Kd [1, 8] [nM] | Kd [1, 9] [nM] | cyclin K nuclear intensity compared to control ([2]; MDA-MB-231 cells, 0.5 µM, 2 h) | EC50 [3] [nM] | EC50 [4] [nM] | cyclin K degradation (immunoblot) [5] | ability to induce ternary complex ([1]; labeled DDB1ΔBPB + CDK12/cyclin K) | cyclin K nuclear intensity compared to control [2]
1 | Cn1cc(-c2cnn3c(NCc4nc5cc(Cl)c(Cl)cc5[nH]4)nc(N4CCOCC4)nc23)cn1 [MR-1014, N-((5,6-Dichloro-1H-benzo[d]imidazol-2-yl)methyl)-8-(1-methyl-1H-pyrazol-4-yl)-2-morpholinopyrazolo[1,5-a][1,3,5]triazin-4-amine] | 409 ± 117 | 347 ± 98.3 | 528 ± 295 | 428 | reduced |  |  |  |  | 
2 | Clc1cccc2nc(CNc3cc(N4CCNCC4)nn4c(-c5ccsc5)cnc34)[nH]c12 [MR-1110, N-((7-Chloro-1H-benzo[d]imidazol-2-yl)methyl)-6-(piperazin-1-yl)-3-(thiophen-3-yl)imidazo[1,2-b]pyridazin-8-amine] | 24.3 ± 9 | 31.3 ± 17.4 | 37.6 ± 23.3 | 31.1 ± 6.7 | reduced |  |  |  |  | 
3 | CN1CC=C(c2cn3c(-c4cnn(C(F)F)c4)cnc3c(NCc3nc4cc(Cl)c(Cl)cc4[nH]3)n2)CC1 [MR-1187, N-((5,6-Dichloro-1H-benzo[d]imidazol-2-yl)methyl)-3-(1-(difluoromethyl)-1H-pyrazol-4-yl)-6-(1-methyl-1,2,3,6-tetrahydropyridin-4-yl)imidazo[1,2-a]pyrazin-8-amine] | 137 ± 33.3 | 122 ± 54.6 | 152 ± 63.7 | 137 ± 15 | reduced |  |  |  |  | 
4 | Cn1cc(-n2cnc3c(NCc4nc5cc(Cl)c(Cl)cc5[nH]4)nc(N4CCNCC4)nc32)cn1 [SR-4784, N-((5,6-dichloro-1H-benzo[d]imidazol-2-yl)methyl)-9-(1-methyl-1H-pyrazol-4-yl)-2-(piperazin-1-yl)-9H-purin-6-amine] |  |  |  |  |  | 263 | 796 | induced cyclin K degradation |  | 
5 | C#CCCC1(CCC(=O)N2CCN(c3nc(NCc4nc5cc(Cl)c(Cl)cc5[nH]4)c4ncn(-c5cnn(C)c5)c4n3)CC2)N=N1 [SR-4784-PAP, 3-(3-(But-3-yn-1-yl)-3H-diazirin-3-yl)-1-(4-(6-(((5,6-dichloro-1H-benzo[d]imidazol-2-yl)methyl)amino)-9-(1-methyl-1H-pyrazol-4-yl)-9H-purin-2-yl)piperazin-1-yl)propan-1-one] |  |  |  |  |  |  |  | degraded cyclin K in a proteasome-dependent manner |  | 
6 | CCc1cnn2c(NCc3ccc[n+]([O-])c3)cc(N3CCCC[C@H]3CCO)nc12 [dinaciclib, reference compound] |  |  |  |  |  |  |  |  | lacked the ability to induce a ternary complex | not affected
